Tests used:
Puccinia Recondita [1] = assay: Preventive action against Puccinia recondita (brown rust) on wheat leaf segments; type: in vivo; conditions: foliar, 192 h, 0.02% active ingredient, assessed 8 days after inoculation, read-out: inhibition (preventive fungicidal activity)
Description: (§1) Wheat leaf segments were placed on agar in multiwell plates (24-well format) and sprayed with test solutions (0.02% active ingredient). After drying, the leaf disks were inoculated with a spore suspension of the fungus.

Pyrenophora teres = assay: Action against Pyrenophora teres (net blotch) on barley leaf segments; type: in vivo; conditions: foliar, 96 h, 0.02% active ingredient, assessed 4 days after inoculation, read-out: inhibition (preventive fungicidal activity)
Description: as §1, with “Barley” for “Wheat”, “fungus. After appropriate incubation the activity of a compound was assessed 4 days after inoculation as preventive fungicidal activity.” for “fungus.”

Botryotinia fuckelianal = assay: Action against Botryotinia fuckeliana, liquid culture (gray mould); type: cell-based; conditions: Botrytis cinerea; nutrient broth, 0.02% active ingredient, 24° C., photometrically after 3-4 days; read-out: inhibition of growth
Description: (§2) Conidia of the fungus from cryogenic storage were directly mixed into nutrient broth. After placing a (DMSO) solution (0.02% active ingredient) of the test compounds into a microtiter plate (96-well format) the nutrient broth containing the fungal spores was added. The test plates were incubated at 24° C. and the inhibition of growth was determined photometrically after 3-4 days.

Mycosphaerella arachidis = assay: Action against Mycosphaerella arachidis, liquid culture (early leaf spot); type: cell-based; conditions: PDB potato dextrose broth, 0.02% active ingredient, 24° C., photometrically after 6-7 days, read-out: inhibition of growth
Description: as §2, with “broth (PDB potato dextrose broth).” for “broth.”, “solution” for “solution (0.02% active ingredient)”, “compounds (0.02% active ingredient)” for “compounds”, “measured” for “determined”, “6-7” for “3-4”

[2] = test system: Erysiphe Graminis f.sp. Tritici; assay: Action against Erysiphe graminis f.sp. tritici (wheat powdery mildew), leaf segments, preventive; type: in vivo; conditions: Blumeria graminis, foliar, 168 h, 0.02% active ingredient, assessed 7 days after inoculation, read-out: inhibition (preventive fungicidal activity)
Description: as §1, with “fungus. After appropriate incubation the activity of a compound was assessed 7 days after inoculation as preventive fungicidal activity.” for “fungus.”

Phaeosphaeria nodorum = assay: Preventive action against Phaeosphaeria nodorum (glume blotch) on wheat leaf segments; type: in vivo; conditions: Parastagonospora nodorum, foliar, 96 h, 0.02% active ingredient, assessed 4 days after inoculation, read-out: inhibition (preventive fungicidal activity)
Description: Wheat leaf segments were placed on agar in a multiwell plate (24-well format) and sprayed with test solutions (0.02% active ingredient). After drying, the leaf disks were inoculated with a spore suspension of the fungus. After appropriate incubation the activity of a compound was assessed 4 days after inoculation as preventive fungicidal activity.

Puccinia Recondita [3] = assay: Curative action against Puccinia recondita (brown rust) on wheat leaf segments; type: in vivo; conditions: foliar, sprayed one day after inoculation, 0.02% active ingredient, assessed 8 days after inoculation, read-out: inhibition (curative fungicidal activity)
Description: Wheat leaf segments were placed on agar in multiwell plates (24-well format) and inoculated with a spore suspension of the fungus. One day after inoculation the leaf segments were sprayed with test solutions (0.02% active ingredient).

| SMILES | inhibition at 0.02 % strength (Puccinia Recondita [1]) | inhibition at 0.02 % strength (Pyrenophora teres) | inhibition at 0.02 % strength (Botryotinia fuckelianal) | inhibition at 0.02 % strength (Mycosphaerella arachidis) | inhibition at 0.02 % strength [2] | inhibition at 0.02 % strength (Phaeosphaeria nodorum) | melting point | inhibition at 0.02 % strength (Puccinia Recondita [3]) |
| --- | --- | --- | --- | --- | --- | --- | --- | --- |
| COC(c1csc(Cl)c1Cl)C(C)N(OC)C(=O)c1cn(C)nc1C(F)F (stereo not drawn) [1.037 (diastereoisomer pair 1), 3-difluoromethyl-1-methyl-1H-pyrazole-4-carboxylic acid methoxy-[2-methoxy-1-methyl-2-(4,5-dichlorothiophen-3-yl)ethyl]amide] | ≥ 80% | ≥ 80% | ≥ 80% | ≥ 80% | ≥ 80% | – | – | – |
| COC(c1c(Cl)sc(Cl)c1Cl)C(C)N(OC)C(=O)c1cn(C)nc1C(F)F (centres unmarked) [Compound 1.016, 3-difluoromethyl-1-methyl-1H-pyrazole-4-carboxylic acid methoxy-[2-methoxy-1-methyl-2-(2,4,5-trichlorothiophene-3-yl)ethyl]amide] | ≥ 80% | ≥ 80% | ≥ 80% | ≥ 80% | ≥ 80% | ≥ 80% | 113 to 116 °C | ≥ 80% |
| COC(c1csc(Cl)c1Cl)C(C)N(OC)C(=O)c1cn(C)nc1C(F)F (centres unmarked) [Compound 1.037, 3-difluoromethyl-1-methyl-1H-pyrazole-4-carboxylic acid methoxy-[2-methoxy-1-methyl-2-(4,5-dichlorothiophen-3-yl)ethyl]amide] | – | – | – | – | – | – | 80 to 83 °C | – |
| COC(c1csc(Cl)c1Cl)C(C)N(OC)C(=O)c1cn(C)nc1C(F)F (stereo not drawn) [1.037 (diastereoisomer pair 2), 3-difluoromethyl-1-methyl-1H-pyrazole-4-carboxylic acid methoxy-[2-methoxy-1-methyl-2-(4,5-dichlorothiophen-3-yl)ethyl]amide] | – | – | – | – | – | – | – | ≥ 80% |
| CON(C(=O)c1cn(C)nc1C(F)F)C(C)Cc1c(Cl)sc(Cl)c1Cl (centres unmarked) [Compound 1.001, 3-difluoromethyl-1-methyl-1H-pyrazole-4-carboxylic acid methoxy-[1-methyl-2-(2,4,5-trichlorothiophene-3-yl)ethyl]amide] | ≥ 80% | ≥ 80% | ≥ 80% | ≥ 80% | ≥ 80% | ≥ 80% | 70 to 72 °C | ≥ 80% |

— patent US8273783B2, “Microbiocides” (Syngenta Crop Protection LLC, priority 2009, dated 2012)
